Laboratory results taken from patent US12478632B2, “Method for ameliorating progression of renal fibrosis and treating renal fibrosis by 5-(2′,4′-difluorophenyl)-salicylanilide derivatives” (National Defense Medical University, priority 2021, dated 2025).

What was measured:
[1] = system: passively induced IgAN (P-IgAN) mice; assay: passively induced IgAN (P-IgAN) mouse model; type: in vivo, C57BL/6 mice
Method: (§1) Two complementary mouse models of IgAN—a passive IgAN (P-IgAN) and a spontaneous IgAN in gddY mice (S-IgAN) were used to examine therapeutic effects of LCC18 on renal conditions of IgAN. […] Eight-week-old female C57BL/6 mice were injected with IgA anti-PC intraperitoneally and PnC intravenously for 14 or 28 consecutive days. Treatment with LCC18 (daily dose of 10 mg/kg body weight) dissolved in polyethylene glycol 400 (PEG 400) (Sigma-Aldrich, St. Louis, MO, USA) via an intraperitoneal (IP) route (P-IgAN+LCC18), and another group of IgAN mice was administered vehicle only (PEG 400) as the disease control group (P-IgAN+Vehicle). Mice were killed at days 14 and 28. Age-matched C57BL/6 mice injected with saline (P-WT+Saline) were used as normal controls; (2) a spontaneous IgAN in gddY (S-IgAN) mice, featuring severe glomerular and tubulointerstitial lesions, characterized by mesangial proliferation, and mesangial matrix expansion. LCC18 (S-IgAN+LCC18) or vehicle (S-IgAN+Vehicle) was administered to mice daily beginning at 8 weeks of age and continuing throughout the present invention. The gddY mice were sacrificed at 32 weeks. Age-matched BALB/c mice served as normal controls (S-WT). All animal experiments were conducted with approval of the Institutional Animal Care and Use Committee of the National Defense Medical Center, Taipei, Taiwan, and were conducted in accordance with NIH Guidelines for the Care and Use of Laboratory Animals.
(§2) For the P-IgAN model, the mice received daily at day 7 after disease induction, either LCC18 (10 mg/kg body weight) (P-IgAN+LCC18) or vehicle (P-IgAN+Vehicle) via IP throughout the study. For the S-IgAN model, LCC18 (S-IgAN+LCC18) or vehicle (S-IgAN+Vehicle) was administered to the mice daily throughout the study via IP, beginning at 8 weeks of age. […] This beneficial effect began on day 21 after disease induction and increased until day 28 when mice were sacrificed (FIG. 1C).

[2] = system: spontaneous IgAN gddY (S-IgAN) mice; assay: spontaneous IgAN in gddY mice (S-IgAN) model; type: in vivo
Method: as §1, §2

[3] = system: bone marrow-derived DCs (BMDCs); assay: DC activation (CD80 in CD11c+ cells) by flow cytometry in IgA ICs-stimulated BMDCs; type: cell-based; settings: LCC18-treated IgA ICs-stimulated BMDCs; FIG. 3A
Method: (§3) FIG. 3A-3H depict that LCC18 inhibits activation of DCs and systemic immune responses in IgAN model. The fluorescence intensity of CD80^+ in gated CD11c^+ cells (within gated CD11c^+ cells, grey-filled area created by staining with an isotype-matched control antibody) determined by flow cytometry (FIG. 3A). T-cell proliferation measured by [^3H]thymidine (FIG. 3B). BMDCs were incubated for 24 h with IgA ICs and co-cultured with OT-II CD′ T cells pulsed with OVA peptide. P-IgAN mouse model (FIG. 3C, FIG. 3D, FIG. 3E). S-IgAN mouse model (FIG. 3F, FIG. 3G, FIG. 3H). CD3 T-cell proliferation in splenocytes by [^3H]thymidine uptake (FIG. 3C and FIG. 3F). Numbers of CD4^+CD44^hiCD62L^lo (FIG. 3D and FIG. 3G) and CD8^+CD44^hiCD62L^lo-hi (FIG. 3E and FIG. 3H) memory T cells among splenic cells assessed by flow cytometry. WT, wild type. #Not detectable. BMDCs, bone marrow-derived dendritic cells. Bars show the mean±SD of 7 mice per group. *p<0.05, **p<0.01, ***p<0.005, ****p<0.001. ns, no significant difference. Data of FIG. 3B-FIG. 3H were analyzed using ANOVA (with Dunnett's multiple comparisons test).

[4] = system: CD4+ T cells; assay: OVA-specific T cell proliferation assay (BMDCs co-cultured with OT-II T cells, [3H]thymidine); type: cell-based; settings: OT-II T cells pulsed with OVA peptide; FIG. 3B
Method: as §3

[5] = system: ASLN mice; assay: accelerated, severe lupus nephritis (ASLN) model; type: in vivo, NZB/WF1 mice
Method: To establish ASLN model mice, eight-week-old female NZB/WF1 mice (prior to autoantibody production) were given LPS (Sigma, MO, USA) (0.8 mg/kg body weight) twice a week by intraperitoneal injection. Seven days after the first injection of LPS, seven mice each received either LCC18 (10 mg/kg body weight) or vehicle (polyethylene glycol 400) (Sigma) daily via intraperitoneal injections. Another group of age-matched female NZB/WF1 mice were injected with saline and served as normal controls. All mice were sacrificed 5 weeks after induction of the disease. All animal experiments were performed in compliance with the NIH Guidelines for the Care and Use of Laboratory Animals with approval of the Institutional Animal Care and Use Committee of The National Defense Medical Center, Taipei, Taiwan.
Next, an ASLN model in NZB/W F1 mice, which mimics acute onset of severe LN in human, was validated potential therapeutic effects of LCC18 in the present invention. LN was induced in these mice by intermittent LPS injections to simulate SLE patients following bacterial or viral infections believed to act as environmental triggers. LCC18 was administered daily after the onset of the renal condition in ASLN mice (ASLN+LCC18 mice), while ASLN mice that received vehicle only (ASLN+Vehicle mice) were used as disease control mice.
Urine samples were collected for albuminuria assessment using the ratio of urine albumin/urine creatinine (Cr). Serum blood urea nitrogen (BUN) and Cr levels were determined.
On the other hand, renal tissues were fixed in formalin buffer and paraffin-embedded and stained with hematoxylin and eosin (H&E). Scoring of renal pathology was evaluated.
Levels of anti-dsDNA antibody (Alpha Diagnostic International, TX, USA) were measured using commercial ELISA kits.
Reactive oxygen species (ROS) levels in renal tissues were measured by a lucigenin-enhanced chemiluminescence assay.

[6] = system: UUO mice; assay: unilateral ureteral obstruction (UUO) model mimicking renal tubulointerstitial lesions; type: in vivo; settings: days 7 and 14
Source text: To establish Unilateral ureteral obstruction (UUO) model for mimicking renal tubulointerstitial lesions (TILs), the mice (8-12 weeks of age) were anesthetized followed by a lateral incision on the back of the mouse. After the left ureter was exposed, it was tied with a silk suture at two points and permanently ligated. Sham-operated mice, which underwent an identical procedure but without ureteric ligation, were used as sham control. After 7 or 14 days, the mice were euthanized, and then, renal tissues, pelvis urine, and renal draining lymph nodes were collected.
LCC18 (10 mg/kg body weight) was administered intraperitoneally 1 day before (preventive group) or 3 days after (therapeutic group) the induction of UUO, or 1 day after the ligation of renal vessels in this model. Diseased mice that received only polyethylene glycol 400 (PEG 400) (Sigma-Aldrich, St. Louis, MO, USA) daily via intraperitoneal injections were used as the vehicle control group. All animal experiments were performed with the approval of the Institutional Animal Care and Use Committee of the National Defense Medical Center, Taiwan, in compliance with the NIH Guide for the Care and Use of Laboratory Animals.
Renal tissues were fixed in 10% buffered formalin, embedded in paraffin, and 3-μm thick sections were cut for haematoxylin and eosin (H&E) staining. Fifty glomeruli were examined in at least two renal tissue sections per slide by light microscopy at ×400 magnification. The percentage of glomeruli showing proliferation, or glomerular sclerosis was determined.
The quantitative analysis of the data obtained from hematoxylin and eosin (H&E) and Masson's trichrome staining of renal histopathological evaluation was used by quantitative imaging software (Pax-it; Paxcam, Villa Park, IL).
Further, in another embodiment, formalin-fixed and paraffin-embedded renal sections were incubated with primary antibodies followed by biotinylated secondary antibodies and avidin-biotin-peroxidase complex (Dako) for IHC staining.

[7] = system: CKDs' subject; assay: summary of effects in kidney and serum of the CKDs' subject; type: in vivo
Source text: In summary, the LCC18 attenuates glomerular cell proliferation about 15˜35%, attenuates sclerosis and fibrosis, attenuates crescent formation about 40˜90%, attenuates fibrinoid necrosis about 40˜90% in a kidney of the CKDs' subject.
Further, the LCC18 can regulate renal function and albuminuria, downregulate serum levels of blood urea nitrogen (serum levels of BUN) about 50˜60%, serum levels of creatinine (serum levels of Cr) about 30˜40% and serum levels of IgG anti-dsDNA about 60˜70% of the CKDs' subject.

[8] = in a kidney of the CKDs' subject

## O=c1oc2ccc(-c3ccc(F)cc3F)cc2c(=O)n1-c1cccc(C(F)(F)F)c1 [LCC18, 6-(2,4-difluorophenyl)-3-(3-(trifluoromethyl)phenyl)-2H-benzo[e][1,3]oxazine-2,4(3H)-dione]
[1]; P-IgAN+LCC18 vs P-IgAN+Vehicle, 10 mg/kg daily IP from day 7, FIG. 1A
  serum levels of BUN: Significantly lower
[1]; P-IgAN+LCC18 vs P-IgAN+Vehicle, 10 mg/kg daily IP from day 7, FIG. 1B
  serum levels of Cr: Significantly lower
[1]; flow cytometry, FIG. 3D
  increase in number of CD4+CD44hiCD62Llo memory T cells in the spleen: inhibited
[1]; flow cytometry, FIG. 3E
  increase in number of CD8+CD44hiCD62Llo-hi memory T cells in the spleen: inhibited
[1]; light microscopy, vs P-IgAN+Vehicle, FIG. 1G-1I
  severity of renal lesions (glomerular cell proliferation, sclerosis in glomeruli), H&E: markedly reduced
[1]; vs P-IgAN+Vehicle, FIG. 2A
  ROS levels in renal tissues: Significantly reduced
[1]; vs P-IgAN+Vehicle, FIG. 3C
  T cell proliferation in splenocytes, [3H] thymidine uptake: significantly decreased
[1]; vs P-IgAN+Vehicle, effect began on day 21 and increased until day 28, FIG. 1C
  urine levels of albumin (urine albumin/Cr ratio): significantly decreased
[2]; S-IgAN+LCC18 vs S-IgAN+Vehicle, daily IP from 8 weeks of age, FIG. 1D
  serum levels of BUN: benefited from treatment
[2]; S-IgAN+LCC18 vs S-IgAN+Vehicle, daily IP from 8 weeks of age, FIG. 1E
  serum levels of Cr: benefited from treatment
[2]; flow cytometry, FIG. 3G
  increase in splenic number of CD4+CD44hiCD62Llo memory T cells: inhibited
[2]; flow cytometry, FIG. 3H
  increase in splenic number of CD8+CD44hiCD62Llo-hi memory T cells: inhibited
[2]; vs S-IgAN+Vehicle, FIG. 2B
  ROS levels in renal tissues: Significantly reduced
[2]; vs S-IgAN+Vehicle, FIG. 3F
  T cell proliferation in splenocytes, [3H] thymidine uptake: significantly decreased
[2]; vs S-IgAN+Vehicle, beginning on week 24, continuing to week 32, FIG. 1F
  urine levels of albumin (urine albumin/Cr ratio): therapeutic effect was also observed
[3]
  fluorescence intensity levels of CD11c+CD80+ cells (activation marker for DCs): Significantly decreased
[4]
  CD4+ T cell proliferation induced by IgA ICs-stimulated BMDCs: inhibited
[5]; ASLN+LCC18 vs ASLN+Vehicle, 10 mg/kg daily IP, FIG. 4A
  elevated serum levels of BUN: significantly inhibited
[5]; ASLN+LCC18 vs ASLN+Vehicle, 10 mg/kg daily IP, FIG. 4B
  elevated serum levels of Cr: significantly inhibited
[5]; ELISA, vs ASLN+Vehicle, FIG. 4G
  serum anti-dsDNA levels: Greatly reduced
[5]; flow cytometry, FIG. 5A
  CD4+ T cells (CD4+CD44hiCD62Llo T memory cells) in splenocytes: inhibited
[5]; flow cytometry, FIG. 5B
  CD8+ T cells (CD8+CD44hiCD62Llo-hi T memory cells) in splenocytes: inhibited
[5]; flow cytometry, FIG. 5C
  Treg cell differentiation (CD4+CD25+Foxp3+) in splenocytes: enhanced
[5]; lucigenin-enhanced chemiluminescence, vs ASLN+Vehicle, FIG. 6
  renal levels of ROS: significantly reduced
[5]; vs ASLN+Vehicle, FIG. 4C
  albuminuria (urine albumin/urine Cr): greatly reduced
[5]; vs ASLN+Vehicle, FIG. 4D-4F
  pathological changes including intrinsic cell proliferation and crescent formation, H&E scoring: significantly inhibited
[6]; 10 mg/kg IP, vs Vehicle+UUO, FIG. 7A-7D
  renal fibrotic changes (H&E TILs score, Masson's trichrome fibrotic area): greatly improved
[6]; vs UUO+Vehicle, FIG. 8
  increased renal expression of Col-III, IHC: inhibited
  increased renal expression of p-Smad2/3, IHC: inhibited
[7]; CKDs' subject
  downregulation of serum levels of IgG anti-dsDNA: 60˜70%
  downregulation of serum levels of blood urea nitrogen (BUN): 50˜60%
  downregulation of serum levels of creatinine (Cr): 30˜40%
[7]; [8]
  attenuation of crescent formation: 40˜90%
  attenuation of fibrinoid necrosis: 40˜90%
  attenuation of glomerular cell proliferation: 15˜35%
  sclerosis and fibrosis: attenuates
